Legend:
[1] = system: ds17 (17 base-pair duplex-DNA); assay: Fluorescence titration with ds17; format: binding; settings: 0.25 μM compound, cacodylate buffer + 100 mM KCl, λex=340 nm
Method: The quadruplex-over duplex-selectivity is evaluated through fluorescence titrations by comparison of experiments carried out with 22AG (see above) and with a short duplex-DNA: ds17, which is a 17 base-pair duplex-DNA that represents a biological sequence used in previous studies (28); the sequences of the two complementary strands are the following: [5′-CCAGTTCGTAGTAACCC-3′]/[5′-GGGTTACTACGAACTGG-3′]. Duplex-structure is prepared by heating the two corresponding complementary strands at 90° C. for 5 min in a 10 mM sodium cacodylate buffer pH 7.3, 100 mM KCl followed by a slow cooling over 6 hrs. Concentrations are determined by UV-Vis measurements (after thermal denaturation, 5 min at 85° C.) at 260 nm before use.

[2] = system: 22AG quadruplex-DNA (human telomeric sequence); assay: Fluorescence titration with 22AG; format: binding; settings: 0.25 μM compound, λex=340 nm
Method: The quadruplex-DNA used herein is 22AG: it results from the folding of a 22 nt oligonucleotide that mimics the human telomeric sequence: 22AG is [5′-AG3(T2AG3)3-3′]. Quadruplex-structure from 22AG is prepared by heating the corresponding oligonucleotide at 90° C. for 5 min in a 10 mM sodium cacodylate buffer pH 7.2, 100 mM NaCl (for 22AG Na) or KCl (for 22AG K) and cooling in ice to favor the intramolecular folding by kinetic trapping. Concentrations are determined by UV-Vis measurements (after thermal denaturation, 5 min at 85° C.) at 260 nm before use. (see FIG. 7A and FIG. 7B).

22AG quadruplex-DNA = assay: Circular dichroism with 22AG; format: binding, human
Method: (§1) Circular dichroism (CD) enables a deep study of the modification of the DNA structure upon the binding of a ligand; it thus reflects the affinity of the ligand to its target, and can also provide insight into its binding mode (Paramasivan et al, Methods, 2007, 43, 324).
The quadruplex-DNA used herein is 22AG (see above), annealed both in a 10 mM sodium cacodylate buffer pH 7.2, 100 mM NaCl (for 22AG Na) or KCl (for 22AG K). To a 3 μM solution of 22AG in both buffers is added an excess of compound 3 (30 μM, 10 equiv.).
The equilibrium between folded and unfolded forms of 22AG oligonucleotide is highly sensitive to the presence and the nature of the buffer it is used in. In low cationic buffer like 10 mM Tris.HCl, pH 7.2, 22AG is mostly unfolded (random coiled); it is thus possible to influence the folded <-> unfolded equilibrium by adding compound 3. Thus, to a 3 μM solution of random coiled 22AG in Tris.HCl buffer are added increasing amounts of compound 3 (from 0 to 7.5 equiv.); it results in a deep modification of the CD signal of 22AG, with a disappearance of the random coiled-typical 257 nm signal to the benefit of two novel maxima, one positive (near 290 nm) and one negative (near 265 nm), both being typical of the CD signature of ‘anti-parallel’ quadruplex-DNA structure (as 22AG Na, see above).

c-kit2 quadruplex-DNA [3] = assay: Circular dichroism with c-kit2; format: binding; settings: 3 μM c-kit2, 30 μM compound, 100 mM KCl, 285 nm
Method: as §1
The intra-quadruplex selectivity is evaluated through CD by comparison of experiments carried out with 22AG (see above) and with two other quadruplex-structures: c-myc and c-kit2 (see above). The results are given on FIG. 11A and FIG. 11B. To a 3 μM solution of both c-kit2 (left) and c-myc (right) in cacodylate buffer (10 mM sodium cacodylate+100 mM KCl) is added an excess of compound 3 (30 μM, 10 equiv.).

[4] = Fluorescence quantum yield; format: physicochemical; settings: anthracene in ethanol as reference
Method: Pyridine-based polyheteroaromatic compounds detailed in this study are characterized by a strong fluorescence. Remarkably, the quantum yield is not affected by the nature of the solvent they are used in, from pure organic (e.g. DMSO) to physiological conditions (e.g. buffer: 10 mM sodium cacodylate+100 mM KCl, pH 7.2, see Table). The modification of the fluorescence properties of studied compounds upon interaction with DNA enables to compare their apparent binding affinity for several quadruplexes of biological relevance (27).
NB: the quantum yields (and standard deviations (s.d.)) of compound 3 were measured in CH2Cl2 (DCM) and water, with anthracene in ethanol as reference.

c-kit2 quadruplex-DNA [5] = assay: Fluorescence titration with c-kit2; format: binding; settings: 0.25 μM compound, cacodylate buffer + 100 mM KCl, λex=340 nm
Method: The intra-quadruplex selectivity is evaluated through fluorescence titrations by comparison of experiments carried out with 22AG (see above) and with two other quadruplex-structures: c-myc and c-kit2. The formation of these two quadruplex-DNAs is currently highly suspected in the promoter region of c-myc (see above) and c-kit (22; 29 and 30)oncogenes. The sequences are the following: c-myc: [5′-[…]-3′] and c-kit2: [(5′-[…]-3′]; Quadruplex-structures are prepared by heating the corresponding oligonucleotide at 90° C. for 5 min in a 10 mM sodium cacodylate buffer pH 7.2, 100 mM KCl and cooling in ice to favor the intramolecular folding by kinetic trapping. Concentrations are determined by UV-Vis measurements (after thermal denaturation, 5 min at 85° C.) at 260 nm before use.

[6] = system: HT1080GFP-POT1 human fibrosarcoma and U20S human osteosarcoma cells; assay: Inhibition of cell proliferation, viable cell count with trypan blue; format: cell-based; settings: 72 hours, read-out: IC50 proliferation of cancer cells
Method: The HT1080 human fibrosarcoma cell line stably transfected with pEGFP-POT1 vector (HT1080GFP-POT1) has been previously described (32) and U20S human osteosarcoma was from American Type Culture Collection (Rockville, USA). Cells were grown in Dublecco's modified Eagles's medium (Invitrogen) supplemented with 10% v/v fetal bovine serum and with 400 μg/ml geneticin for HT1080GFP-POT1. Cells were plated in 6-wells culture plates on day 0 at 4.5×10^4 cells/well in the presence of different concentrations of compound 3 (10, 3, 1, 0.3 and 0.1 μM), each concentration in duplicate, and cultured for further 72 hours. At day 3, cells were washed with 1×PBS and trypsinized. For each treated cell sample, the number of viable cells was determined in the presence of trypan blue. Results are given on FIG. 15A and FIG. 15B. They correspond to the relative cell number in percent as compared to control untreated cells defined as 100%.

## c1cc(-c2cnc(-c3cccc(-c4cnco4)n3)o2)nc(-c2cnc(-c3cccc(-c4cnco4)n3)o2)c1 [compound 3, 2,6-bis{2-[6-(oxazol-5-yl)pyridin-2-yl]oxazol-5-yl}pyridine]
[1]
  fluorescence of compound upon addition of ds17: do not result in a progressive quench of the fluorescence
[2]; cacodylate buffer + 100 mM KCl
  fluorescence of compound upon addition of 22AG K: progressive quench of the fluorescence
[2]; cacodylate buffer + 100 mM NaCl
  fluorescence of compound upon addition of 22AG Na: progressive quench of the fluorescence
22AG quadruplex-DNA; 3 μM 22AG, 30 μM compound (10 equiv.), 100 mM KCl, 263 nm
  CD signal of 22AG K: reorganises completely the structure
22AG quadruplex-DNA; 3 μM 22AG, 30 μM compound (10 equiv.), 100 mM NaCl, 263 nm
  CD signal of 22AG Na: modification of the amplitude of the CD signal
22AG quadruplex-DNA; 3 μM random coiled 22AG in 10 mM Tris.HCl pH 7.2, 0 to 7.5 equiv. compound
  quadruplex-structure induction (folded/unfolded equilibrium of 22AG): able to shift the equilibrium between the unfolded and the folded form of 22AG toward the folded one
c-kit2 quadruplex-DNA [3]
  CD signal of c-kit2: modification of the amplitude of the CD signal
[4]; DCM (CH2Cl2)
  Quantum yield: 50.35%
[4]; Water
  Quantum yield: 50.37%
c-kit2 quadruplex-DNA [5]
  fluorescence of compound upon addition of c-kit2: progressive quench of the fluorescence
[6]
  IC50: 100 to 1000 nM

Reference: US20110201648A1, “POLY-HETEROARYL DERIVATIVES FOR THE TREATMENT OF CANCER” (INSTITUT CURIE, priority 2008, published 2011)
